Experimental data as given in the NIST ThermoML archive (doi:10.1016/j.jct.2008.02.020).
± gives the expanded uncertainty stated by the source.

Conditions: Liquid, Buoyancy - hydrostatic balance with magnetic suspension - one sinker

CCCCCCC [heptane]
Conditions	mass density [kg/m3]
233.15 K, 101.68 kPa	733.289 ± 0.2
233.15 K, 1104.1 kPa	733.918 ± 0.2
233.15 K, 2003.3 kPa	734.481 ± 0.2
233.15 K, 4006 kPa	735.714 ± 0.2
233.15 K, 6004.8 kPa	736.928 ± 0.2
233.15 K, 8009.5 kPa	738.125 ± 0.2
233.15 K, 9956.8 kPa	739.277 ± 0.2
233.15 K, 11864 kPa	740.377 ± 0.2
233.15 K, 13984 kPa	741.588 ± 0.2
233.15 K, 15995 kPa	742.722 ± 0.2
233.15 K, 17888 kPa	743.774 ± 0.2
233.15 K, 20074 kPa	744.977 ± 0.2
233.15 K, 22024 kPa	746.029 ± 0.2
233.15 K, 24018 kPa	747.094 ± 0.2
233.15 K, 25954 kPa	748.113 ± 0.2
233.15 K, 27944 kPa	749.147 ± 0.2
233.15 K, 29979 kPa	750.192 ± 0.2
253.15 K, 98.99 kPa	717.086 ± 0.19
253.15 K, 1101.5 kPa	717.807 ± 0.19
253.15 K, 2000.5 kPa	718.446 ± 0.19
253.15 K, 4006.3 kPa	719.85 ± 0.19
253.15 K, 6005.4 kPa	721.223 ± 0.19
253.15 K, 8147.8 kPa	722.669 ± 0.19
253.15 K, 10096 kPa	723.959 ± 0.19
253.15 K, 11827 kPa	725.088 ± 0.19
253.15 K, 13955 kPa	726.459 ± 0.19
253.15 K, 16060 kPa	727.785 ± 0.19
253.15 K, 18040 kPa	729.014 ± 0.19
253.15 K, 20020 kPa	730.22 ± 0.19
253.15 K, 22093 kPa	731.465 ± 0.19
253.15 K, 23828 kPa	732.495 ± 0.19
253.15 K, 25891 kPa	733.701 ± 0.2
253.15 K, 27739 kPa	734.762 ± 0.2
253.15 K, 29900 kPa	735.987 ± 0.2
273.15 K, 102.15 kPa	700.687 ± 0.18
273.15 K, 1101.3 kPa	701.507 ± 0.18
273.15 K, 2006.3 kPa	702.244 ± 0.18
273.15 K, 4005.4 kPa	703.841 ± 0.19
273.15 K, 6005.5 kPa	705.403 ± 0.19
273.15 K, 8197.5 kPa	707.077 ± 0.19
273.15 K, 10109 kPa	708.507 ± 0.19
273.15 K, 12114 kPa	709.976 ± 0.19
273.15 K, 14092 kPa	711.403 ± 0.19
273.15 K, 16116 kPa	712.831 ± 0.19
273.15 K, 18076 kPa	714.19 ± 0.19
273.15 K, 20096 kPa	715.565 ± 0.19
273.15 K, 22069 kPa	716.883 ± 0.19
273.15 K, 24102 kPa	718.226 ± 0.19
273.15 K, 25918 kPa	719.397 ± 0.19
273.15 K, 27991 kPa	720.718 ± 0.19
273.15 K, 29444 kPa	721.633 ± 0.19
293.15 K, 98.89 kPa	683.986 ± 0.18
293.15 K, 1104.3 kPa	684.937 ± 0.18
293.15 K, 2003.3 kPa	685.779 ± 0.18
293.15 K, 4003 kPa	687.611 ± 0.18
293.15 K, 6003.7 kPa	689.394 ± 0.18
293.15 K, 8007.4 kPa	691.14 ± 0.18
293.15 K, 10028 kPa	692.854 ± 0.18
293.15 K, 12139 kPa	694.603 ± 0.18
293.15 K, 14008 kPa	696.118 ± 0.18
293.15 K, 16160 kPa	697.827 ± 0.18
293.15 K, 18149 kPa	699.368 ± 0.18
293.15 K, 19992 kPa	700.756 ± 0.18
293.15 K, 22123 kPa	702.362 ± 0.18
293.15 K, 24036 kPa	703.766 ± 0.19
293.15 K, 25999 kPa	705.175 ± 0.19
293.15 K, 27983 kPa	706.576 ± 0.19
293.15 K, 29986 kPa	707.965 ± 0.19
313.15 K, 101.45 kPa	666.898 ± 0.17
313.15 K, 1102.2 kPa	667.995 ± 0.17
313.15 K, 2005.5 kPa	668.973 ± 0.17
313.15 K, 4004.5 kPa	671.086 ± 0.18
313.15 K, 6106.9 kPa	673.238 ± 0.18
313.15 K, 7941.2 kPa	675.062 ± 0.18
313.15 K, 9944.4 kPa	676.997 ± 0.18
313.15 K, 11841 kPa	678.793 ± 0.18
313.15 K, 13782 kPa	680.575 ± 0.18
313.15 K, 16032 kPa	682.588 ± 0.18
313.15 K, 17876 kPa	684.2 ± 0.18
313.15 K, 19748 kPa	685.804 ± 0.18
313.15 K, 21803 kPa	687.518 ± 0.18
313.15 K, 23829 kPa	689.172 ± 0.18
313.15 K, 25814 kPa	690.765 ± 0.18
313.15 K, 27801 kPa	692.324 ± 0.18
313.15 K, 29818 kPa	693.872 ± 0.18
333.15 K, 103 kPa	649.298 ± 0.17
333.15 K, 1106 kPa	650.588 ± 0.17
333.15 K, 2004.1 kPa	651.723 ± 0.17
333.15 K, 4003.6 kPa	654.18 ± 0.17
333.15 K, 6004.6 kPa	656.549 ± 0.17
333.15 K, 8005.6 kPa	658.837 ± 0.17
333.15 K, 9901.5 kPa	660.933 ± 0.17
333.15 K, 12083 kPa	663.274 ± 0.17
333.15 K, 14040 kPa	665.309 ± 0.17
333.15 K, 16005 kPa	667.293 ± 0.17
333.15 K, 17854 kPa	669.109 ± 0.17
333.15 K, 19985 kPa	671.149 ± 0.18
333.15 K, 21967 kPa	672.997 ± 0.18
333.15 K, 23926 kPa	674.778 ± 0.18
333.15 K, 25823 kPa	676.467 ± 0.18
333.15 K, 27823 kPa	678.205 ± 0.18
333.15 K, 30009 kPa	680.058 ± 0.18
353.15 K, 99.37 kPa	631.037 ± 0.16
353.15 K, 1182.8 kPa	632.68 ± 0.17
353.15 K, 2156.3 kPa	634.131 ± 0.17
353.15 K, 4140.7 kPa	636.982 ± 0.17
353.15 K, 6175.6 kPa	639.78 ± 0.17
353.15 K, 8138.9 kPa	642.37 ± 0.17
353.15 K, 10095 kPa	644.851 ± 0.17
353.15 K, 12083 kPa	647.284 ± 0.17
353.15 K, 14040 kPa	649.596 ± 0.17
353.15 K, 16039 kPa	651.883 ± 0.17
353.15 K, 18008 kPa	654.064 ± 0.17
353.15 K, 19996 kPa	656.201 ± 0.17
353.15 K, 21956 kPa	658.247 ± 0.17
353.15 K, 23925 kPa	660.247 ± 0.17
353.15 K, 25887 kPa	662.188 ± 0.17
353.15 K, 27855 kPa	664.084 ± 0.17
353.15 K, 29976 kPa	666.077 ± 0.17
373.15 K, 1164.3 kPa	613.877 ± 0.16
373.15 K, 2149.2 kPa	615.631 ± 0.16
373.15 K, 4123.5 kPa	618.999 ± 0.16
373.15 K, 5987 kPa	622.014 ± 0.16
373.15 K, 8094.8 kPa	625.262 ± 0.16
373.15 K, 10060 kPa	628.151 ± 0.16
373.15 K, 12066 kPa	630.972 ± 0.16
373.15 K, 14018 kPa	633.61 ± 0.17
373.15 K, 16044 kPa	636.241 ± 0.17
373.15 K, 18058 kPa	638.765 ± 0.17
373.15 K, 19976 kPa	641.085 ± 0.17
373.15 K, 21960 kPa	643.408 ± 0.17
373.15 K, 23948 kPa	645.665 ± 0.17
373.15 K, 25805 kPa	647.712 ± 0.17
373.15 K, 27898 kPa	649.952 ± 0.17
373.15 K, 29819 kPa	651.952 ± 0.17
393.15 K, 1101.9 kPa	593.952 ± 0.15
393.15 K, 2001.5 kPa	595.905 ± 0.15
393.15 K, 4002.8 kPa	600.027 ± 0.15
393.15 K, 6004.3 kPa	603.884 ± 0.16
393.15 K, 8005.5 kPa	607.511 ± 0.16
393.15 K, 10007 kPa	610.942 ± 0.16
393.15 K, 12111 kPa	614.361 ± 0.16
393.15 K, 14116 kPa	617.466 ± 0.16
393.15 K, 16097 kPa	620.399 ± 0.16
393.15 K, 18029 kPa	623.142 ± 0.16
393.15 K, 20054 kPa	625.904 ± 0.16
393.15 K, 22016 kPa	628.483 ± 0.16
393.15 K, 24006 kPa	631.008 ± 0.16
393.15 K, 25986 kPa	633.434 ± 0.17
393.15 K, 27952 kPa	635.769 ± 0.17
393.15 K, 29843 kPa	638.037 ± 0.17
